# According to US8895753B2, “S1P receptor modulating agent” (Meiji Seika Pharma Co., Ltd., priority 2011, dated 2014):
# Where “and” joins values, the source holds several entries; their conditions need not be identical. Equal values may be shown once.
# Columns and labels:
# Human S1P4 receptor = target: T1, Human S1P4 receptor (Homo sapiens, UniProt O95977); test: Agonist activity at an S1P4 receptor (calcium influx); type: cell-based; details: at 1000 nM; read-out: activity at S1P4 receptor (elevation of intracellular calcium)
# T1 sequence (O95977 1-384): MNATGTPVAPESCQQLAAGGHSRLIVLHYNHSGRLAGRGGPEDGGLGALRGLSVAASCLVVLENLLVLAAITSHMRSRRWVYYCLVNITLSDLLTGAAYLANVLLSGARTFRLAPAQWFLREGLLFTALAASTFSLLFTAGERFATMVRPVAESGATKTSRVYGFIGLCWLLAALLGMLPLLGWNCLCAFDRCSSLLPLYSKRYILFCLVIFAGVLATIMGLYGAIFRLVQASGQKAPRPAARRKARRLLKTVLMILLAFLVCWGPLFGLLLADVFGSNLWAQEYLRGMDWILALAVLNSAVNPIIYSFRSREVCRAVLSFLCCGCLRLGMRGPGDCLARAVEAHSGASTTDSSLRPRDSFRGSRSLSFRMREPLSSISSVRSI
# Protocol: By using Human S1P4 receptor expressing cells (Multispan Inc. CG1052-1), the elevation of intracellular calcium concentration via agonist activity by the addition of 1000 nM was measured by Fret method (fluorescence resonance energy transfer).
# heart rate = test: Evaluation of the heart rate in a rat (under consciousness); type: in vivo; details: conscious rat, vascularly administered at 6 mg/kg body weight
# Protocol: Under anesthesia, femoral artery was cannulated in a 7-11-week old male SD rat (Charles River Laboratories Japan Inc.) that had been reared for more than one week. Arterial cannula was connected to a pressure transducer, and under consciousness changes in the heart rate were monitored with a polygraph (Nihon Kohden) up to 4 hours after the vascular administration of the vehicle (10% PEG300-0.01M KOH saline) or the test compounds. The dose that lowered the heart rate by 20% was computed as TD20 (mg/kg body weight).
# Human S1P1 receptor [1] = target: T2, Human S1P1 receptor (Homo sapiens, UniProt P21453); test: Agonist activity at an S1P1 receptor ([35S]-GTPγS exchange reaction, membrane fractions); type: biochemical; details: read-out: EC50, agonist activity at S1P1 receptor (GTP exchange reaction)
# Protocol: By using membrane fractions prepared from a human S1P1 receptor expressing cells (Multispan Ltd.), the agonist activity of each test compound was measured by [^35S]-GTPγS exchange reaction in accordance with a standard procedure (Methods in Molecular Biology, Vol. 552, p 143-151 (2009)), and EC50 (nM) of each test compound was computed.
# Human S1P5 receptor = target: T3, Human S1P5 receptor (Homo sapiens, UniProt Q9H228); test: Agonist activity at an S1P5 receptor (reporter assay, EDG8-bla/U2OS cells); type: cell-based
# T3 construct: host or cells: U2OS (EDG8-bla/U2OS)
# Protocol: Human S1P5 receptor gene recombinant EDG8-bla/U2OS cells (Life Technologies Japan Ltd.) were plated in a 384-well clear bottom black plate at 10000 cells/32 μL/well, and the plate was incubated at 37° C. in a 5% CO2 incubator for 48 hours. A culture containing each test compound prepared as a 5× concentrate was added at 8 μL/well, and the plate was incubated at 37° C. in a 5% CO2 incubator for 5 hours. The substrate (LiveBLAzer™-FRET B/G substrate (CCF4-AM), Life Technologies Japan Ltd.) prepared as a 6× concentrate was added at 8 μL to each well, and the plate was incubated at room temperature for 2 hours in the dark. The fluorescence intensity of each well was measured using a bottom-reading fluorescence microplate reader at one excitation wavelength and 2 wavelengths for fluorescence emission (Ex409 nm, Em460 nm, Em530 nm). The intensity ratio of fluorescence at 460 nm/530 nm was calculated for each well. The maximum response ratio confirmed from the dose response of S1P was expressed as 100%. The concentration of test compound required to stimulate 50% of its maximal activation was determined as EC50 (nM).
# blood lymphocytic cells = test: Suppressive effect on circulating lymphocytic cells in a rat; type: in vivo; details: 6 hours after administration
# Protocol: Under anesthesia, a femoral artery was cannulated in a 7-11-week old male SD rat (Charles River Laboratories Japan Inc.) that had been reared for more than one week. A vehicle (in case of intravascular administration, 10% PEG300-0.01 M KOH saline was used, and in case of oral administration, 0.5% hydroxymethyl cellulose solution was used) or a test compound was administered intravascularly or by gavage administration. Right before the administration or 2, 4, 6 hours after the administration, the number of blood lymphocytic cells was counted by using an automated hematology analyzer XT-1800i or XT-2000i (Sysmex). The count of lymphocytic cells right before the administration was regarded as 100%, and the dose of the test compound that reduced blood lymphocytic cells by 50% of vehicle-treated group at the point of 6 hours after the administration was calculated as ED50 (mg/kg body weight).
# Human S1P1 receptor [2] = target: T2, Human S1P1 receptor; test: Agonist activity at an S1P1 receptor (reporter assay, EDG1-bla/U2OS cells); type: cell-based; set-up: host or cells: U2OS (EDG1-bla/U2OS); details: S1P maximum response = 100%
# Procedure, shortened: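 EDG1-bla/U2OS cells grown 48 h, then exposed to test compound for 5 h at 37 °C; CCF4-AM β-lactamase substrate added for 2 h at room temperature in the dark. Read-out is the 460/530 nm emission ratio (Ex409 nm), normalised to maximal S1P response as 100%; EC50 is the concentration giving 50% of maximal activation.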
# Human S1P3 receptor = Human S1P3 receptor (Homo sapiens, UniProt Q99500); test: Agonist activity at an S1P3 receptor ([35S]-GTPγS exchange reaction at 1000 nM); type: biochemical; details: read-out: percent of the maximal agonist activity at S1P3 receptor
# Procedure, shortened: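 Agonism measured by [35S]-GTPγS exchange in membranes from human S1P3-expressing cells, compound tested at 1000 nM.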
# T2 sequence (P21453 whole entry): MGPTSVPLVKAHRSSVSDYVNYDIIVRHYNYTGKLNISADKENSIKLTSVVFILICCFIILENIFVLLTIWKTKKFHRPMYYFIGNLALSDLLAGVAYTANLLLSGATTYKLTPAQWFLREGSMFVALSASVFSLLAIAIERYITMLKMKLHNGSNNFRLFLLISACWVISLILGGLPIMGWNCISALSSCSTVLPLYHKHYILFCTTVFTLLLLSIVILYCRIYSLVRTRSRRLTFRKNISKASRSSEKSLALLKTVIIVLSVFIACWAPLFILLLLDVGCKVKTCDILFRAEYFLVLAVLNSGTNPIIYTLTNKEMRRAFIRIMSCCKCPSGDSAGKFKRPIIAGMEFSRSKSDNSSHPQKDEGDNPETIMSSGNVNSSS
# T3 sequence (Q9H228 whole entry): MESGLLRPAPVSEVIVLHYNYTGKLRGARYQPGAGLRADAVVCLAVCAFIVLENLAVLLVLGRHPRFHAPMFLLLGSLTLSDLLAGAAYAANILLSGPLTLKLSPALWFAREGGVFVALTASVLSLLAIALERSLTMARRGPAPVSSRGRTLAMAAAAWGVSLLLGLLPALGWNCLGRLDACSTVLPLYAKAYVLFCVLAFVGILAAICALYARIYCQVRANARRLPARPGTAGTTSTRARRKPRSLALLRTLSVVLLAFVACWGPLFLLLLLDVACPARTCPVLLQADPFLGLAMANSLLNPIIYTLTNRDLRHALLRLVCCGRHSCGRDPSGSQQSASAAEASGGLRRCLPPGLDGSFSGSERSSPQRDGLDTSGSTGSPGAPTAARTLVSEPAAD
# Chain of Human S1P3 receptor (Q99500 whole entry): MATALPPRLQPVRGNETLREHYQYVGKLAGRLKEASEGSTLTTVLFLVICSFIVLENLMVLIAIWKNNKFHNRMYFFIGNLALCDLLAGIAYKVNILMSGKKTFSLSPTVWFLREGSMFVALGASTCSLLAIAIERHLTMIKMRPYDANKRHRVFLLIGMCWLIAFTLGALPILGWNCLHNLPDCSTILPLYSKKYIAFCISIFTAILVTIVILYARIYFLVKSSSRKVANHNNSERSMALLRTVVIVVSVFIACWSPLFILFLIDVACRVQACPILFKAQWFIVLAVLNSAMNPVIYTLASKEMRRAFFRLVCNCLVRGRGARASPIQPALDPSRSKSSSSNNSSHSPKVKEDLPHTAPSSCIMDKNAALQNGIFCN
Structure (SMILES),activation at 1 µM (Human S1P4 receptor) [%],suppression of the heart rate (heart rate),EC50 (Human S1P1 receptor [1]) [nM],EC50 (Human S1P5 receptor) [nM],"ED50, dose reducing blood lymphocytic cells by 50% (blood lymphocytic cells; gavage administration) [mg/kg body weight]","ED50, dose reducing blood lymphocytic cells by 50% (blood lymphocytic cells; vascular administration) [mg/kg body weight]",EC50 (Human S1P1 receptor [2]),Emax at 1 µM (Human S1P3 receptor) [%]
"CC(C)Oc1ccc(-c2cnc(-c3ccc(CN4CC(C(=O)O)C4)cc3)s2)cc1 [Example 2, 1-(4-(5-(4-isopropoxyphenyl)thiazol-2-yl)benzyl)azetidine-3-carboxylic acid]",< 20,not recognized,≤ 50,≥ 2000,0.13,0.1,≤ 10 nM and 3.79 nM,< 20
"CC(C)Oc1ccc(-c2cnc(-c3ccc(CN4CC(C(=O)O)C4)cc3)s2)cc1Cl [Example 3, 1-(4-(5-(3-chloro-4-isopropoxyphenyl)thiazol-2-yl)benzyl)azetidine-3-carboxylic acid]",< 20,not recognized,≤ 10,≥ 2000,0.15,0.016,≤ 1 nM and 0.41 nM,20 to 50
